From ChEMBL document CHEMBL6109165, “Novel Triazole-Substituted Imidazo[1,2-a]Pyrimidine Compounds as cGAS inhibitors” (ACS Med Chem Lett, 2025) come the findings set out here.

A short description of data set [1]: Solubility of compound in FaSSIF at pH 6.5 measured after 4 hrs by HPLC-UV analysis. The data set is classed as physicochemical.
The target of data set [2] is Cyclic GMP-AMP synthase (Homo sapiens) (UniProt Q8N884). Nature of the data set: Inhibition of cGAS in human whole blood incubated for 6 hrs by cytometric bead array. The data set is classed as tissue-based.
Chain of Cyclic GMP-AMP synthase (Homo sapiens) (Q8N884 whole entry, the tested form may be a part): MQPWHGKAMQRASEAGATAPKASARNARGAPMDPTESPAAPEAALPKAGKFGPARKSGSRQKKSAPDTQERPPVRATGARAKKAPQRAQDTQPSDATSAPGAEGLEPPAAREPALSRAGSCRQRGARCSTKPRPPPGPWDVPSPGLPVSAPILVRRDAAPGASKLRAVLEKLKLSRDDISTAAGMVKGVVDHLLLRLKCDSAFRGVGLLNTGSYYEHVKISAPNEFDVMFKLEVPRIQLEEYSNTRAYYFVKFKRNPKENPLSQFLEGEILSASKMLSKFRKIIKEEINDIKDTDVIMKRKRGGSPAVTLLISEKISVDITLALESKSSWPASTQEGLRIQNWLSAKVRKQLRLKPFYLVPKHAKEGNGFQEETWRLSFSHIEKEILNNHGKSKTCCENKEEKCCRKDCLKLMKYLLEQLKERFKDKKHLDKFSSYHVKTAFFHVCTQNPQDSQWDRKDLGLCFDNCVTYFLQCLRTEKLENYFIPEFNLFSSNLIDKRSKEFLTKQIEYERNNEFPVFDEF
For data set [3] the target is unchanged. The data set is described as follows: Inhibition of human recombinant cGAS (157 to 522 residues) extracted from Escherichia coli BL21(DE3)cells using GTP/ATP as substrate incubated for 1 to 2 hrs by Rapidfire 300 mass spectrometric analysis. The note with it: time 1-2 hrs.

Converted amounts (≈) assume the structure as drawn.

The term solubility denotes the concentration that dissolves in the medium under given conditions. Low readings indicate little dissolved substance, high ones much dissolved substance. Regarding `Fc1cnc2nc(-c3nc(C(F)(F)F)n[nH]3)c(-c3c[nH]cn3)n2c1`, the concentration in solution in data set [1] (solubility at 4 h) came to 5 µg/mL (≈ 14.8 µM). The pXC50 stood at 6.5 in data set [2] and 8.4 in data set [3].
Consider `O=P(O)(O)OCn1nc(C(F)(F)F)nc1-c1nc2ncc(F)cn2c1-c1cnc[nH]1`, for which the solubility at 4 h in data set [1] was > 1000 µg/mL. In data set [3], the pXC50 is 6.1.
For `FC(F)(F)c1n[nH]c(-c2nc3ncccn3c2-c2c[nH]cn2)n1`, the solubility at 4 h in data set [1] is 4 µg/mL (≈ 12.5 µM).
With `O=C(CCCOP(=O)(O)O)OCn1cnc(-c2c(-c3nc(C(F)(F)F)nn3COC(=O)CCCOP(=O)(O)O)nc3ncccn23)c1.O=C(O)C(F)(F)F`, the solubility at 4 h in data set [1] was > 1000 µg/mL. Moreover, the values for the pXC50 in data set [2] and in data set [3] were 6.5 and 7.5, respectively.
